# Measured values taken from paper PMC8528301 (PLoS ONE, 2021).
# “And” between values parts separate entries of the source, which are not always exact repeats. Equal values may be shown once.
# Experiment: Dasatinib single oral gavage plasma pharmacokinetics (NLME modeling)
# Type: in vivo, mouse
# Design: DV (dasatinib plasma concentration): unit: ng/mL
# Procedure: Dasatinib was dissolved in 80 mMol/L sodium citrate buffer pH 3.1 for a total dasatinib concentration of 1 mg/mL and a 10 mL/kg gavage volume. Mice were grouped by VD3 status and sex and studied at 8 and 10 weeks of age. […] Saphenous and submandibular bleeds of mice using a single-use Sarstedt Minivette POCT 50 μL K3 EDTA capillary device are humane methods for obtaining small volumes of blood over multiple time points, preferrable to retroorbital bleeds, and were approved for this study that required blood sampling at multiple time points (three) after dasatinib administration. Each mouse was sampled three times on two separate dasatinib dosing occasions. Blood was collected into the Minivette capillary device, dispensed into a microtube and vortexed to mix the anticoagulant. The tubes were then immediately centrifuged to plasma and stored on dry ice for the remainder of the study. At the end of the in vivo procedures, plasma samples were transferred from dry ice and placed at -80°C until analysis.
# Total plasma dasatinib concentrations were assessed using a sensitive and specific liquid chromatography, tandem mass spectrometry (LC-MS/MS) assay. Dasatinib stock solutions were prepared in acetonitrile and used to spike matrix calibrators and quality controls. Protein precipitation was performed using a 1:4 ratio of plasma to 15 ng/mL erlotinib HCl (St. Jude Compound Management, S00004053, Inventory ID: SJCH0042996, Purity > 95%) in methanol as an internal standard. A 3μL aliquot of the extracted supernatant was injected onto a Shimadzu LC-20ADXR high performance liquid chromatography system via a LEAP CTC PAL autosampler. The LC separation was performed using a Phenomenex Kinetex 2.6 um EVO C18 (100A, 50 x 2.1 mm) maintained at 50°C with gradient elution at a flow rate of 0.5 mL/min. The binary mobile phase gradient began with a linear increase to 100% B in 4.0 minutes. The column was then rinsed for 2.0 minutes at 100% B and then equilibrated at the initial conditions for two minutes for a total run time of eight minutes.
# Analyte and IS were detected with tandem mass spectrometry using a SCIEX API 5500 Q-TRAP in the positive ESI mode with monitoring of the following mass transitions: Dasatinib 488.20 -> 401.00, erlotinib HCl 394.20 -> 250.10.
# The experimental bioanalytical runs were all found to be acceptable for the purpose of a singlicate non-GLP, preclinical PK assessment. A linear model (1/X^2 weighting) fit the calibrators across the 1.00 to 500 ng/mL range, with a correlation coefficient (R) of […]. The lower limit of quantification (LLOQ), defined as a peak area signal-to-noise ratio of 5 or greater verses a matric blank with IS, was 1.00 ng/mL.
# § To evaluate the plasma pharmacokinetics (PK) of dasatinib af t er two separate single oral gavage doses of solution, separated by a washout period, in normal C57BL/6 mice […]
# vs 10wk) on the plasma PK of oral dasatinib us ing a nonlinear mixed effects (NLME) PK modeling […]
# 2. 1 In Vivo Pharmacokinetic (PK) Study
# The total plasma PK of dasatinib in C57BL/6 mice (The Jackson Laboratory) was assessed after single oral gavages of 10 mg/kg of dasatinib free base equivalents. Dasatinib (St. Jude Compound […]
# sodium citrate buffer pH 3.1 for a final dasatinib concentration of 1 mg/mL for a 10 mL/kg gavage volume.
# Mice were grouped by Vitamin D dietary sufficiency status and sex, and studied at 8 and 10 weeks of age. Survival saphenous and facial vein bleeding of mice was conducted using IACUC-approved […]
# was sampled 3 times on the 2 separate occasions of dasatinib dosing. […] The tubes were then immediately centrifuged to plasma, and stored on dry ice for […]
smiles,measurement,setting,value
Cc1nc(Nc2ncc(C(=O)Nc3c(C)cccc3Cl)s2)cc(N2CCN(CCO)CC2)n1 [dasatinib],calculated Cgut,10 mg/kg into a gastric volume of 300–400 μL,1.5 mM
same,"influence of VD3 status, sex, or age on oral dasatinib PK","10 mg/kg oral gavage, 8 wk vs 10 wk",no influence
same,Q pop,Base Model,19.5 mL/min/kg
same,V1 pop (apparent volume of central compartment),Base Model,12.7 L/kg
same,V2 pop,Base Model,11.1 L/kg
same,omega_Cl (inter-individual variability),Base Model,0.294 %CV
same,omega_V1 (inter-individual variability),Base Model,0.465 %CV
same,Tk0 pop,"Base Model, 10 mg/kg oral gavage, zero order absorption duration",1.29 h
same,Q pop,Final Model,21 mL/min/kg
same,V1 pop,Final Model,12.2 L/kg
same,V2 pop,Final Model,11.2 L/kg
same,omega_Cl,Final Model,0.287 %CV
same,omega_V1,Final Model,0.477 %CV
same,Tk0 pop,Final Model (VD3 status and sex covariates on Cl),1.33 h
same,DV (dasatinib plasma concentration),"GROUP:VD3 Def, SEX:F, OCC 1, time 0.5",206.1 and 158.35
same,DV (dasatinib plasma concentration),"GROUP:VD3 Def, SEX:F, OCC 1, time 1",457.04 and 404.1
same,DV (dasatinib plasma concentration),"GROUP:VD3 Def, SEX:F, OCC 1, time 2",> 500 and 323.65
same,DV (dasatinib plasma concentration),"GROUP:VD3 Def, SEX:F, OCC 1, time 8",33.172 and 43.592
same,DV (dasatinib plasma concentration),"GROUP:VD3 Def, SEX:F, OCC 1, time 16",2.7889 and 2.9067
same,DV (dasatinib plasma concentration),"GROUP:VD3 Def, SEX:F, OCC 2, time 0.125",29.279 and 44.718
same,DV (dasatinib plasma concentration),"GROUP:VD3 Def, SEX:F, OCC 2, time 0.25",240.93 and 155.4
same,DV (dasatinib plasma concentration),"GROUP:VD3 Def, SEX:F, OCC 2, time 0.5",128.51 and 161.37
same,DV (dasatinib plasma concentration),"GROUP:VD3 Def, SEX:F, OCC 2, time 16",6.2042 and 7.8308
same,DV (dasatinib plasma concentration),"GROUP:VD3 Def, SEX:M, OCC 1, time 0.25",143.39 and 275.48
same,DV (dasatinib plasma concentration),"GROUP:VD3 Def, SEX:M, OCC 1, time 0.5",240.61 and 267.78
same,DV (dasatinib plasma concentration),"GROUP:VD3 Def, SEX:M, OCC 1, time 2",760.24
same,DV (dasatinib plasma concentration),"GROUP:VD3 Def, SEX:M, OCC 1, time 4",99.618 and 81.306
same,DV (dasatinib plasma concentration),"GROUP:VD3 Def, SEX:M, OCC 1, time 8",11.773 and 10.821
same,DV (dasatinib plasma concentration),"GROUP:VD3 Def, SEX:M, OCC 1, time 24",7.0494 and 5.7321
same,DV (dasatinib plasma concentration),"GROUP:VD3 Def, SEX:M, OCC 2, time 0.5",117.58 and 209.13
same,DV (dasatinib plasma concentration),"GROUP:VD3 Def, SEX:M, OCC 2, time 2",376.78 and > 500
same,DV (dasatinib plasma concentration),"GROUP:VD3 Def, SEX:M, OCC 2, time 4",62.561 and 70.903
same,DV (dasatinib plasma concentration),"GROUP:VD3 Def, SEX:M, OCC 2, time 8",13.735 and 13.061
same,DV (dasatinib plasma concentration),"GROUP:VD3 Def, SEX:M, OCC 2, time 16",8.5466 and 7.4123
same,DV (dasatinib plasma concentration),"GROUP:VD3 Suf, SEX:F, OCC 1, time 0.25",244.67 and 197.71
same,DV (dasatinib plasma concentration),"GROUP:VD3 Suf, SEX:F, OCC 1, time 0.5",144.41 and 217.29
same,DV (dasatinib plasma concentration),"GROUP:VD3 Suf, SEX:F, OCC 1, time 2",466.97 and > 500
same,DV (dasatinib plasma concentration),"GROUP:VD3 Suf, SEX:F, OCC 1, time 4",105.56 and 62.725
same,DV (dasatinib plasma concentration),"GROUP:VD3 Suf, SEX:F, OCC 1, time 8",11.198 and 14.683
same,DV (dasatinib plasma concentration),"GROUP:VD3 Suf, SEX:F, OCC 1, time 16",1.9898 and 3.161
same,DV (dasatinib plasma concentration),"GROUP:VD3 Suf, SEX:F, OCC 2, time 0.5",124.69 and 151.83
same,DV (dasatinib plasma concentration),"GROUP:VD3 Suf, SEX:F, OCC 2, time 2",295.49 and 395.48
same,DV (dasatinib plasma concentration),"GROUP:VD3 Suf, SEX:F, OCC 2, time 4",72.682 and 42.565
same,DV (dasatinib plasma concentration),"GROUP:VD3 Suf, SEX:F, OCC 2, time 16",9.1881 and 6.2417
same,DV (dasatinib plasma concentration),"GROUP:VD3 Suf, SEX:M, OCC 1, time 0.125",35.897 and 45.322
same,DV (dasatinib plasma concentration),"GROUP:VD3 Suf, SEX:M, OCC 1, time 0.25",87.715 and 117.65
same,DV (dasatinib plasma concentration),"GROUP:VD3 Suf, SEX:M, OCC 1, time 2",> 500 and 483.94
same,DV (dasatinib plasma concentration),"GROUP:VD3 Suf, SEX:M, OCC 1, time 4",103.68 and 89.88
